In US8088758B2, “17β-hydroxysteroid dehydrogenase type I inhibitors” (Abbott Products GmbH, priority 2003, dated 2012):

Target: T1, recombinant human 17β-hydroxysteroid dehydrogenase type 1 (Homo sapiens, UniProt P14061)
T1 construct: made in house; host or cells: Sf9 insect cells (baculovirus, Bac to Bac Expression System)
T1 sequence (P14061 1-328): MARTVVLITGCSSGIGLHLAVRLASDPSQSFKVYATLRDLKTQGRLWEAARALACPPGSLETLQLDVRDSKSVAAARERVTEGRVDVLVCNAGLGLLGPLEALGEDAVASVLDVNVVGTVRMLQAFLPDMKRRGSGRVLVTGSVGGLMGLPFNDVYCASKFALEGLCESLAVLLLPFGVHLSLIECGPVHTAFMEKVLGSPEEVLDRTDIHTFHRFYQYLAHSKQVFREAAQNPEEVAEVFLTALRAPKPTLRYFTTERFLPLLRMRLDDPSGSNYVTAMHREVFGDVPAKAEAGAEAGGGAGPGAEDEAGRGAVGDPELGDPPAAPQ
Test: Inhibition of recombinant human 17β-hydroxysteroid dehydrogenase type 1 (conversion of 3H-estrone to estradiol, HPLC)
Type: biochemical
Conditions: 30 nM 3H-estrone, 1 mM NADPH, 30 min at RT; for inhibition at 0.1 µM: inhibitor 100 nM, read-out: Inhibition of rec. 17β-HSD1 (% inhibition), 100 nM; for inhibition at 1 µM: inhibitor 1 μm, read-out: Inhibition of rec. 17β-HSD1 (% inhibition), 1 μm
Procedure: 1. Inhibition of the 17β-hydroxysteroid Dehydrogenase Type 1 Enzyme
17β-HSD1 Purification: Recombinant baculovirus was generated by the “Bac to Bac Expression System” (Invitrogen). Recombinant bacmid was transfected to Sf9 insect cells using “Cellfectin Reagent” (Invitrogen). 60 h later cells were harvested; the microsomal fraction was isolated as described by Puranen et al. 1994. Aliquots were stored frozen until determination of enzymatic activity.
Assay—Inhibition of Recombinant Human 17β-hydroxysteroid Dehydrogenase Type 1:
Recombinant protein (0.1 μg/ml) was incubated in 20 mM KH2PO4 pH 7.4 with 30 nM 3H-estrone and 1 mM NADPH for 30 min at RT, in the presence of potential inhibitors at concentrations of 1 μM or 0.1 μM. Inhibitor stock solutions were prepared in DMSO. Final concentration of DMSO was adjusted to 1% in all samples. The enzyme reaction was stopped by addition of 10% trichloroacetic acid (final concentration). Samples were centrifuged in a microtiter plate at 4000 rpm for 10 min. Supernatants were applied to reverse phase HPLC on a Waters Symmetry C18 column, equipped with a Waters Sentry Guard column. Isocratic HPLC runs were performed at RT at a flow rate of 1 ml/min of acetonitrile:water 48:52 as running solvent. Radioactivity was monitored in the eluate by a Packard Flow Scintillation Analyzer. Total radioactivity for estrone and estradiol were determined in each sample and percent conversion of estrone to estradiol was calculated according to the following formula:
Percent inhibition was calculated as follows: % inhibition=100−% conversion

Compound: COc1ccc2c(c1)CC[C@H]1[C@@H]3[C@H](CCC(=O)NCc4ccc(Cl)cc4)CC(=O)[C@@]3(C)CC[C@H]21 [Example 323]
- inhibition at 0.1 µM: 28.5%
- inhibition at 1 µM: 72.7%

Compound: COc1ccc2c(c1)CC[C@H]1[C@@H]3[C@H](CCCCC(=O)NC4CCCCC4)CC(=O)[C@@]3(C)CC[C@H]21 [Example 331]
- inhibition at 0.1 µM: 37%
- inhibition at 1 µM: 88%

Compound: COc1ccc2c(c1)CC[C@H]1[C@@H]3[C@H](CCCCCC(=O)N4CCSCC4)CC(=O)[C@@]3(C)CC[C@H]21 [Example 355]
- inhibition at 0.1 µM: 34.4%
- inhibition at 1 µM: 85.1%

Compound: COc1ccc2c(c1)CC[C@H]1[C@@H]3[C@H](CCCCCC(=O)NCCc4cccs4)CC(=O)[C@@]3(C)CC[C@H]21 [Example 366]
- inhibition at 0.1 µM: 56.3%
- inhibition at 1 µM: 94.4%

Compound: Cc1cccc(S(=O)(=O)NC[C@H]2CC(=O)[C@@]3(C)CC[C@@H]4c5ccc(O)cc5CC[C@H]4[C@H]23)c1 [Example 677]
- inhibition at 0.1 µM: 36.9%
- inhibition at 1 µM: 83.7%

Compound: COc1ccc2c(c1)CC[C@H]1[C@@H]3[C@H](CCCNC(=O)Nc4cccc5ccccc45)CC(=O)[C@@]3(C)CC[C@H]21 [Example 451]
- inhibition at 0.1 µM: 32.3%
- inhibition at 1 µM: 74.6%

Compound: COc1ccc2c(c1)CC[C@H]1[C@@H]3[C@H](CCCCC(=O)N(C)Cc4ccccc4)CC(=O)[C@@]3(C)CC[C@H]21 [Example 344]
- inhibition at 0.1 µM: 39.8%
- inhibition at 1 µM: 88.9%

Compound: COc1ccc2c(c1)CC[C@H]1[C@@H]3[C@H](CCC(=O)N4CCOCC4)CC(=O)[C@@]3(C)CC[C@H]21 [Example 316]
- inhibition at 0.1 µM: 25.3%
- inhibition at 1 µM: 74.5%

Compound: COc1ccc2c(c1)CC[C@H]1[C@@H]3[C@H](CCCCC(=O)NCc4ccc5c(c4)OCO5)CC(=O)[C@@]3(C)CC[C@H]21 [Example 335]
- inhibition at 0.1 µM: 59%
- inhibition at 1 µM: 90.5%

Compound: COc1ccc2c(c1)CC[C@H]1[C@@H]3[C@H](CCC(=O)NC4CCCCC4)CC(=O)[C@@]3(C)CC[C@H]21 [Example 310]
- inhibition at 0.1 µM: 67.9%
- inhibition at 1 µM: 91.7%

Compound: COc1ccc2c(c1)CC[C@H]1[C@@H]3[C@H](CCC(=O)N(C)C4CCCCC4)CC(=O)[C@@]3(C)CC[C@H]21 [Example 313]
- inhibition at 0.1 µM: 62.6%
- inhibition at 1 µM: 93%

Compound: C[C@]12CC[C@@H]3c4ccc(O)cc4CC[C@H]3[C@@H]1[C@@H](CNS(=O)(=O)c1ccc3ccccc3c1)CC2=O [Example 661]
- inhibition at 0.1 µM: 40.1%
- inhibition at 1 µM: 82%

Compound: Cc1cccc(S(=O)(=O)N(C)C[C@H]2CC(=O)[C@@]3(C)CC[C@@H]4c5ccc(O)cc5CC[C@H]4[C@H]23)c1 [Example 694]
- inhibition at 0.1 µM: 34.6%
- inhibition at 1 µM: 87.3%

Compound: COc1ccc2c(c1)CC[C@H]1[C@@H]3[C@H](CCCOC(=O)Nc4ccc(C(F)(F)F)cc4)CC(=O)[C@@]3(C)CC[C@H]21 [Example 745]
- inhibition at 0.1 µM: 29.9%
- inhibition at 1 µM: 53.5%

Compound: COc1ccc2c(c1)CC[C@H]1[C@@H]3[C@H](CCCCCC(=O)NCc4ccccc4OC)CC(=O)[C@@]3(C)CC[C@H]21 [Example 360]
- inhibition at 0.1 µM: 41.5%
- inhibition at 1 µM: 85.6%

Compound: CN(Cc1ccccc1)C(=O)CCC[C@@H]1CC(=O)[C@@]2(C)CC[C@@H]3c4ccc(O)cc4CC[C@H]3[C@H]12 [Example 38, N-Benzyl-4-(3-hydroxy-17-oxo-estra-1,3,5(10)-trien-15β-yl)-N-methyl-butyramide]
- inhibition at 0.1 µM: 60.5%
- inhibition at 1 µM: 89.5%

Compound: COc1ccc2c(c1)CC[C@H]1[C@@H]3[C@H](CCCCC(=O)NCc4cccc(F)c4)CC(=O)[C@@]3(C)CC[C@H]21 [Example 342]
- inhibition at 0.1 µM: 40.4%
- inhibition at 1 µM: 89.2%

Compound: C[C@]12CC[C@@H]3c4ccc(O)cc4CC[C@H]3[C@@H]1[C@H](CCCC(=O)N1CCOCC1)CC2=O [Example 1, 3-Hydroxy-15β-(4-morpholin-4-yl-4-oxo-butyl)-estra-1,3,5(10)-trien-17-one]
- inhibition at 0.1 µM: 49.9%
- inhibition at 1 µM: 80.2%

Compound: CN(C[C@H]1CC(=O)[C@@]2(C)CC[C@@H]3c4ccc(O)cc4CC[C@H]3[C@H]12)S(=O)(=O)c1ccccc1 [Example 684]
- inhibition at 0.1 µM: 31.3%
- inhibition at 1 µM: 86.9%

Compound: COc1ccc2c(c1)CCC1C2CC[C@]2(C)C(=O)C[C@H](C(=O)N(C)Cc3cccc4ccccc34)C12 (stereo partly drawn) [Example 152]
- inhibition at 0.1 µM: 25.6%
- inhibition at 1 µM: 41.4%

Compound: CCOC(=O)Cc1csc(NC(=O)CC[C@@H]2CC(=O)[C@@]3(C)CC[C@@H]4c5ccc(OC)cc5CC[C@H]4[C@H]23)n1 [Example 314]
- inhibition at 0.1 µM: 33.6%
- inhibition at 1 µM: 62.1%

Compound: CN(C[C@H]1CC(=O)[C@@]2(C)CC[C@@H]3c4ccc(O)cc4CC[C@H]3[C@H]12)S(=O)(=O)c1ccc2ccccc2c1 [Example 681]
- inhibition at 0.1 µM: 39.7%
- inhibition at 1 µM: 87.1%

Compound: COc1ccc2c(c1)CC[C@H]1[C@@H]3[C@H](CCCCC(=O)NCc4cccnc4)CC(=O)[C@@]3(C)CC[C@H]21 [Example 338]
- inhibition at 0.1 µM: 28.7%
- inhibition at 1 µM: 84.6%

Compound: COc1ccc2c(c1)CC[C@H]1[C@@H]3[C@H](CCCOC(=O)Nc4ccc(Cl)c(Cl)c4)CC(=O)[C@@]3(C)CC[C@H]21 [Example 749]
- inhibition at 0.1 µM: 29.8%
- inhibition at 1 µM: 57.3%

Compound: CNC(=O)CCC[C@@H]1CC(=O)[C@@]2(C)CC[C@@H]3c4ccc(OC)cc4CC[C@H]3[C@H]12 [Example 4B, 4-(3-Methoxy-17-oxo-estra-1,3,5(10)-trien-15β-yl)-N-methyl-butyramide]
- inhibition at 0.1 µM: 30.5%
- inhibition at 1 µM: 60.8%

Compound: C[C@]12CC[C@@H]3c4ccc(O)cc4CC[C@H]3[C@@H]1[C@@H](CCCC(=O)N1CCOCC1)CC2=O [Example 40, 3-Hydroxy-15α-(4-morpholin-4-yl-4-oxo-butyl)-estra-1,3,5(10)-trien-17-one]
- inhibition at 0.1 µM: 32.3%
- inhibition at 1 µM: 79.4%

Compound: C[C@]12CC[C@@H]3c4ccc(O)cc4CC[C@H]3[C@@H]1[C@@H](CCCCNC(=O)NCC1CCCCC1)CC2=O [Example 491]
- inhibition at 0.1 µM: 56.9%
- inhibition at 1 µM: 83%

Compound: C[C@]12CC[C@@H]3c4ccc(O)cc4CC[C@H]3[C@@H]1[C@@H](CNS(=O)(=O)c1ccc(F)cc1)CC2=O [Example 665]
- inhibition at 0.1 µM: 54.6%
- inhibition at 1 µM: 91.2%

Compound: COc1ccc2c(c1)CC[C@H]1[C@@H]3[C@H](CCC(=O)NCCc4cccs4)CC(=O)[C@@]3(C)CC[C@H]21 [Example 327]
- inhibition at 0.1 µM: 28.7%
- inhibition at 1 µM: 77%

Compound: COc1ccc2c(c1)CCC1C2CC[C@]2(C)C(=O)C[C@@H](CCCC(=O)NCCc3c[nH]c4c(C)cccc34)C12 (stereo partly drawn) [Example 31]
- inhibition at 0.1 µM: 52.8%
- inhibition at 1 µM: 77.9%

Compound: COc1ccc2c(c1)CC[C@H]1[C@@H]3[C@H](CCC(=O)NCCc4ccc(O)cc4)CC(=O)[C@@]3(C)CC[C@H]21 [Example 324]
- inhibition at 0.1 µM: 57.9%
- inhibition at 1 µM: 91.5%

Compound: C[C@]12CC[C@@H]3c4ccc(O)cc4CC[C@H]3[C@@H]1[C@@H](CNS(=O)(=O)c1ccccc1)CC2=O [Example 664]
- inhibition at 0.1 µM: 60.5%
- inhibition at 1 µM: 92.7%

Compound: CCCCNC(=O)CCCC[C@@H]1CC(=O)[C@@]2(C)CC[C@@H]3c4ccc(OC)cc4CC[C@H]3[C@H]12 [Example 345]
- inhibition at 0.1 µM: 33%
- inhibition at 1 µM: 85.6%

Compound: COc1ccc2c(c1)CC[C@H]1[C@@H]3[C@H](CCCNC(=O)NC4CCCCC4)CC(=O)[C@@]3(C)CC[C@H]21 [Example 450]
- inhibition at 0.1 µM: 34%
- inhibition at 1 µM: 80.7%

Compound: COc1ccc2c(c1)CC[C@H]1[C@@H]3[C@H](CCCCNC(=O)Nc4ccc(OC)c(OC)c4)CC(=O)[C@@]3(C)CC[C@H]21 [Example 488]
- inhibition at 0.1 µM: 60.3%
- inhibition at 1 µM: 91.6%

Compound: COc1ccc2c(c1)CC[C@H]1[C@@H]3[C@H](CCCC(=O)NCc4ccccc4)CC(=O)[C@@]3(C)CC[C@H]21 [Example 3B, N-Benzyl-4-(3-methoxy-17-oxo-estra-1,3,5(10)-trien-15β-yl)-butyramide]
- inhibition at 0.1 µM: 77.4%
- inhibition at 1 µM: 82.1%
